# Laboratory results reported in patent US20220089575A1, “FARNESOID X RECEPTOR AGONISTS AND USES THEREOF” (Metacrine, Inc., priority 2017, published 2022).
# Molecular target: T1, hFXR (Homo sapiens, UniProt Q96RI1)
# T1 construct: expressed in transfected cells; host or cells: CV-1 cells
# T1 sequence (Q96RI1 1-486): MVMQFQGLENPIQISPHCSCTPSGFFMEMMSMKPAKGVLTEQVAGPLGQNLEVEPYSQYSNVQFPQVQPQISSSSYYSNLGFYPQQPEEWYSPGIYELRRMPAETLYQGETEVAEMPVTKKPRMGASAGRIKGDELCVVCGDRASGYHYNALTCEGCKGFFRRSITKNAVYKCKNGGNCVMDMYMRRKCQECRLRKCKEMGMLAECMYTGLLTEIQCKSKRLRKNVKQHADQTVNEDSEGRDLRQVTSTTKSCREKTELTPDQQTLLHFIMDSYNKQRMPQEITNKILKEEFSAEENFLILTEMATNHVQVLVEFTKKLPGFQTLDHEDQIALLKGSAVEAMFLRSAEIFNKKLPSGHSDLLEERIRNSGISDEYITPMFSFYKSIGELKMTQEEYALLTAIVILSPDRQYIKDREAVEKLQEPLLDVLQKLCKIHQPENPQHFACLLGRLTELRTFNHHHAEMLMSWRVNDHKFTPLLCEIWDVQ
# T1 sequence (P19793 1-462 partner): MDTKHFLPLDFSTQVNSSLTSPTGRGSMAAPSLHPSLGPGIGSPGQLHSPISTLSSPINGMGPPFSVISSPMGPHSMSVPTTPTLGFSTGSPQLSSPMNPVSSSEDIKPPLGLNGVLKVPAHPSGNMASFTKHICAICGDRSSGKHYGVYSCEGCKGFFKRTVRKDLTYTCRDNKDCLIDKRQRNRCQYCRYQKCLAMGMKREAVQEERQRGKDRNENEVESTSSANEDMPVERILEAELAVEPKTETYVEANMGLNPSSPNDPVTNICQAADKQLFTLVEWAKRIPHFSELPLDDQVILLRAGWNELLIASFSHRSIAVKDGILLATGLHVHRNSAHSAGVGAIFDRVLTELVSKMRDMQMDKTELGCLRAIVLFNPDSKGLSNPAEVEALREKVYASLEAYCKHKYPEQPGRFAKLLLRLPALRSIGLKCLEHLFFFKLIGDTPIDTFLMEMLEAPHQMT
# Experiment: In Vitro FXR Assay (TK): TK-ECRE-luc reporter in transfected CV-1 cells
# Format: cell-based
# Conditions: 18 hrs, luminescence, maximum efficacy of <25% of the Fexarmine control classified as '+'
# Summary of the method: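 Reporter transactivation by hFXR was measured in CV-1 cells carrying hRXR and a TK-ECRE-luc construct, with compound treatment for 18 h before lysis and luminescence detection.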
row,Compound,EC50
1,"CN(C)c1ccc([C@H]2CC[C@H](CN(c3cccc(-c4cnn(C5CC5)c4)c3)C(=O)[C@H]3CC[C@H](CC(=O)O)CC3)CC2)cn1 [Compound 20.12, 2-(trans-4-((3-(1-Cyclopropyl-1H-pyrazol-4-yl)phenyl)((trans-4-(6-(dimethylamino)pyridin-3-yl)cyclohexyl)methyl)carbamoyl)cyclohexyl)acetic acid]",≤ 250 nM
2,"CCc1nc(-c2ccnc(N(C[C@H]3CC[C@H](c4ccc(OC)c(C)n4)CC3)C(=O)[C@H]3CC[C@H](OC(=O)NC)CC3)c2)co1 [Compound 5.51, trans-4-((4-(2-Ethyloxazol-4-yl)pyridin-2-yl)((trans-4-(5-methoxy-6-methylpyridin-2-yl)cyclohexyl)methyl)carbamoyl)cyclohexyl methylcarbamate]",≤ 250 nM
3,"COc1ccc([C@H]2CC[C@H](CN(c3cccc(-c4cnn(C5CC5)c4)c3)C(=O)[C@H]3CC[C@H](NC(=O)C[S+](C)[O-])CC3)CC2)cc1C (stereo partly drawn) [Compound 31.04, trans-N-(3-(1-Cyclopropyl-1H-pyrazol-4-yl)phenyl)-N-((trans-4-(4-methoxy-3-methylphenyl)cyclohexyl)methyl)-4-(2-(methylsulfinyl)acetamido) cyclohexanecarboxamide]",250 to 1000 nM
4,"COc1ccc([C@H]2CC[C@H](CN(c3cc(-c4cnn(C(C)C)c4)ccn3)C(=O)[C@H]3CC[C@H](OC(=O)N4CC(C(C)C)C4)CC3)CC2)nc1C [Compound 7.57, trans-4-((4-(1-Isopropyl-1H-pyrazol-4-yl)pyridin-2-yl)((trans-4-(5-methoxy-6-methylpyridin-2-yl)cyclohexyl)methyl)carbamoyl)cyclohexyl 3-isopropylazetidine-1-carboxylate]",≤ 250 nM
5,"COc1ccc([C@H]2CC[C@H](CN(c3cc(-c4cnn(C(C)C)c4)ccn3)C(=O)[C@H]3CC[C@H](OC(=O)N4CC(O)C4)CC3)CC2)cc1C [Compound 7.16, trans-4-((4-(1-Isopropyl-1H-pyrazol-4-yl)pyridin-2-yl)((trans-4-(4-methoxy-3-methylphenyl)cyclohexyl)methyl)carbamoyl)cyclohexyl 3-hydroxyazetidine-1-carboxylate]",≤ 250 nM
6,"COc1ccc([C@H]2CC[C@H](CN(c3cc(-c4coc(C5CC5)n4)ccn3)C(=O)[C@H]3CC[C@H](OC(=O)N4CCOC(C)C4)CC3)CC2)nc1C (stereo partly drawn) [Compound 7.107, trans-4-((4-(2-Cyclopropyloxazol-4-yl)pyridin-2-yl)((trans-4-(5-methoxy-6-methylpyridin-2-yl)cyclohexyl)methyl)carbamoyl)cyclohexyl 2-methylmorpholine-4-carboxylate]",≤ 250 nM
7,"CN(C)c1ccc(C23CCC(CN(c4cccc(-c5cnc(C6CC6)s5)c4)C(=O)[C@H]4CC[C@H](OC(=O)NCCO)CC4)(CC2)CC3)cn1 [Compound 4.03, 4-((3-(2-Cyclopropylthiazol-5-yl)phenyl)((4-(6-(dimethylamino)pyridin-3-yl)bicyclo[2.2.2]octan-1-yl)methyl)carbamoyl)cyclohexyl (2-hydroxyethyl)trans-carbamate]",≤ 250 nM
8,"COc1ccc([C@H]2CC[C@H](CN(c3cc(-c4coc(C(C)C)n4)ccn3)C(=O)[C@H]3CC[C@H](OC(=O)N4CC(O)C4)CC3)CC2)nc1C [Compound 7.71, trans-4-((4-(2-Isopropyloxazol-4-yl)pyridine-2-yl)((trans-4-(5-methoxy-6-methylpyridin-2-yl)cyclohexyl)methyl)carbamoyl)cyclohexyl 3-hydroxyazetidine-1-carboxylate]",≤ 250 nM
9,"CCN(CCO)C(=O)O[C@H]1CC[C@H](C(=O)N(C[C@H]2CC[C@H](c3ccc(OC)c(C)n3)CC2)c2cc(-c3coc(C4CC4)n3)ccn2)CC1 [Compound 6.74, trans-4-((4-(2-Cyclopropyloxazol-4-yl)pyridin-2-yl)((trans-4-(5-methoxy-6-methylpyridin-2-yl)cyclohexyl)methyl)carbamoyl)cyclohexyl ethyl(2-hydroxyethyl)carbamate]",≤ 250 nM
10,"COc1ccc([C@H]2CC[C@H](CN(c3cccc(-c4cnn(C5CC5)c4)c3)C(=O)[C@H]3CC[C@H](NC(C)=O)CC3)CC2)cc1C [Compound 26.01, trans-4-Acetamido-N-(3-(1-cyclopropyl-1H-pyrazol-4-yl)phenyl)-N-((trans-4-(4-methoxy-3-methylphenyl)cyclohexyl)methyl)cyclohexanecarboxamide]",≤ 250 nM
11,"COc1ccc([C@H]2CC[C@H](CN(c3cccc(-c4cnn(C5CC5)c4)c3)C(=O)[C@H]3CC[C@H](OC(=O)N4CCC4)CC3)CC2)cc1C [Compound 7.31, trans-4-((3-(1-Cyclopropyl-1H-pyrazol-4-yl)phenyl)((trans-4-(4-methoxy-3-methylphenyl)cyclohexyl)methyl)carbamoyl)cyclohexyl azetidine-1-carboxylate]",≤ 250 nM
12,"COc1ccc([C@H]2CC[C@H](CN(c3cc(-c4coc(C5CC5)n4)ccn3)C(=O)[C@H]3CC[C@H](OC(=O)N[C@@H]4CCCN(C)C4)CC3)CC2)nc1C [Compound 6.80, trans-4-((4-(2-Cyclopropyloxazol-4-yl)pyridin-2-yl)((trans-4-(5-methoxy-6-methylpyridin-2-yl)cyclohexyl)methyl)carbamoyl)cyclohexyl ((R)-1-methylpiperidin-3-yl)carbamate]",≤ 250 nM
13,"COc1ccc([C@H]2CC[C@H](CN(c3cccc(-c4cnc(C5CC5)s4)c3)C(=O)[C@H]3CC[C@H](CO)CC3)CC2)cc1C [Compound 15.02, trans-N-(3-(2-Cyclopropylthiazol-5-yl)phenyl)-4-(hydroxymethyl)-N-((trans-4-(4-methoxy-3-methylphenyl)cyclohexyl)methyl) cyclohexanecarboxamide]",≤ 250 nM
14,"COc1ccc(C23CCC(CN(c4cccc(-c5cnc(C6CC6)s5)c4)C(=O)[C@H]4CC[C@H](OC(=O)NCCO)CC4)(CC2)CC3)cc1C [Compound 4.02, 4-((3-(2-Cyclopropylthiazol-5-yl)phenyl)((4-(4-methoxy-3-methylphenyl)bicyclo[2.2.2]octan-1-yl)methyl)carbamoyl)cyclohexyl (2-hydroxyethyl)trans-carbamate]",≤ 250 nM
15,"COc1ccc([C@H]2CC[C@H](CN(c3cccc(-c4cnn(C5CC5)c4)c3)C(=O)[C@H]3CC[C@H](OC(=O)NCCO)CC3)CC2)cc1C#N [Compound 6.19, trans-4-(((trans-4-(3-Cyano-4-methoxyphenyl)cyclohexyl)methyl)(3-(1-cyclopropyl-1H-pyrazol-4-yl)phenyl)carbamoyl)cyclohexyl (2-hydroxyethyl)carbamate]",≤ 250 nM
16,"CNC(=O)O[C@H]1CC[C@H](C(=O)N(C[C@H]2CC[C@H](c3ccc(OC)c(C)n3)CC2)c2cccc(-c3cnn(C4CC4)c3)c2)CC1 [Compound 3.02, trans-4-((3-(1-Cyclopropyl-1H-pyrazol-4-yl)phenyl)((trans-4-(5-methoxy-6-methylpyridin-2-yl)cyclohexyl)methyl)carbamoyl)cyclohexyl methylcarbamate]",≤ 250 nM
17,"CCCOC(=O)[C@H]1CC[C@H](C(=O)N(C[C@H]2CC[C@H](c3ccc(OC)c(C)c3)CC2)c2cccc(-c3cnn(C4CC4)c3)c2)CC1 [Compound 22, trans-Propyl 4-((3-(1-cyclopropyl-1H-pyrazol-4-yl)phenyl)((trans-4-(4-methoxy-3-methylphenyl)cyclohexyl)methyl)carbamoyl)cyclohexanecarboxylate]",≤ 250 nM
18,"CCNC(=O)O[C@H]1CC[C@H](C(=O)N(C[C@H]2CC[C@H](c3ccc(OC)c(C#N)c3)CC2)c2cc(-c3cnn(C(C)C)c3)ccn2)CC1 [Compound 5, trans-4-(((trans-4-(3-Cyano-4-methoxyphenyl)cyclohexyl)methyl)(4-(1-isopropyl-1H-pyrazol-4-yl)pyridin-2-yl)carbamoyl)cyclohexyl ethylcarbamate]",≤ 250 nM
19,"CCNC(=O)O[C@H]1CC[C@H](C(=O)N(C[C@H]2CC[C@H](c3ccc(OC)c(C#N)n3)CC2)c2cc(-c3cnn(C(C)C)c3)ccn2)CC1 [Compound 5.29, trans-4-(((trans-4-(6-Cyano-5-methoxypyridin-2-yl)cyclohexyl)methyl)(4-(1-isopropyl-1H-pyrazol-4-yl)pyridin-2-yl)carbamoyl)cyclohexyl ethylcarbamate]",≤ 250 nM
20,"COc1ccc(C23CCC(CN(c4cc(-c5cnn(C6CC6)c5)ccn4)C(=O)[C@H]4CC[C@H](CC(=O)O)CC4)(CC2)CC3)cc1C [Compound 20.08, trans-2-(4-((4-(1-Cyclopropyl-1H-pyrazol-4-yl)pyridin-2-yl)((4-(4-methoxy-3-methylphenyl)bicyclo [2.2.2]octan-1-yl)methyl)carbamoyl)cyclohexyl)acetic acid]",≤ 250 nM
